We go through 9 compounds from patent US20260335456A1, “ANTIBODY-DRUG CONJUGATE HAVING CAMPTOTHECIN-BASED DRUG LINKED TO ANTIBODY HAVING LOW ANTIGEN-BINDING AFFINITY THROUGH LINKER” (PINOTBIO, INC., priority 2022, published 2026).

Series [1] relates to EGFR. The settings on record: cited from earlier work.
Series [2] has as its system patients. The settings on record: cited from earlier work.
The test system of series [3] is normal skin and kidney cells. The settings on record: compared with cetuximab; cited from earlier work.
In the next series the test system is relapsed glioblastoma. The settings on record: cited from earlier work.
The test system of series [4] is wide range of cancer cell lines. The settings on record: Lee et al.; cited from earlier work.
The conditions of series [5]: Kim et al.; doses 10 times higher than the clinically applicable dose; cited from earlier work.
For series [6], the system named is patients. The settings on record: domestic clinical studies; cited from earlier work.
The subject of another series is rats and beagle dogs. The series is described as follows: FL118 GLP-toxicity tests. Type of series: in vivo. The settings on record: GLP-toxicity tests in rats and beagle dogs. An excerpt:
(§1) Meanwhile, camptothecin-based anticancer drugs show excellent anticancer responses initially when used in patients, but strong resistance to these drugs appears through Epigenetic Silencing of the Top1 gene and Top2 Dependence of cancer cells.

The test system of series [7] is cancer cell line Xenograft models. The experiment in a line: FL118 xenograft and human tumor animal model efficacy. The class given is in vivo.
Description: Genetic manipulation of DDX5 in PDAC cells affects tumor growth.
as §1

Another series concerns the target T1, ABCG2 (Homo sapiens, UniProt Q9UNQ0).
T1 sequence (Q9UNQ0 1-655): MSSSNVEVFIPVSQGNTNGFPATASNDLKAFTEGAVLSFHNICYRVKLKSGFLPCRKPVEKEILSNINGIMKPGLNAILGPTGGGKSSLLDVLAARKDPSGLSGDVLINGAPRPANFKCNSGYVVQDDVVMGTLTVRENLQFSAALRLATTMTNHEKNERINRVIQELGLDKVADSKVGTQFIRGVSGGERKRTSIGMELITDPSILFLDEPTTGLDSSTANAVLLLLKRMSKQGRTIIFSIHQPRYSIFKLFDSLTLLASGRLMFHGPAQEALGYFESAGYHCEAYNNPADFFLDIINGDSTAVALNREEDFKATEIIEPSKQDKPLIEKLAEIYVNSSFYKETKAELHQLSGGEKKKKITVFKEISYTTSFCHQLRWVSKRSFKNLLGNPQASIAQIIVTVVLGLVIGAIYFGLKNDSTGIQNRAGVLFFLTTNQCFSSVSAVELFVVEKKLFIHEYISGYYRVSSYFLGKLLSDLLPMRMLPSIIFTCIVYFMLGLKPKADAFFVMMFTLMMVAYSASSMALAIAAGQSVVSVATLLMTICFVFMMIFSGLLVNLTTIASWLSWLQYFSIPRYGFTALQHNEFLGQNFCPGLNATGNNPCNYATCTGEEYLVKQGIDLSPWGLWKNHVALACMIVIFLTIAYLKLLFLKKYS
The series is described as follows: Sensitivity to ABCG2 transporter. The class given is cell-based.

Series [8] is described as follows: FL118 pharmacokinetics and tumor accumulation. Type of series: in vivo. An excerpt:
For example, when applying ADC, maximum selectivity between tumor tissue and normal tissue is ensured.

For another series, the system named is FaDu cell line. The experiment in a line: Western blot of DDX5 and anti-apoptotic proteins in FaDu. The settings on record: FaDu and A549; 0, 10, 100 nM. The class given is cell-based. On the procedure: 1-1: Confirmation of Suppressive Activity of Expression of Cancer-Related Survival Genes of DDX5, Survivin, Mcl-1, XIAP and cIAP2 Through Western Blot
200,000 FaDu cell lines were seeded per well in a 6-well plate and incubated at constant temperature (37 °C, 5% CO2). […] It was incubated at constant temperature (37 °C, 5% CO2) for 24 hours. The well was treated with 100 μL of RIPA buffer dissolved in protease inhibitor cocktail. […] Protein concentration was determined through protein assay.
Electrophoresis was performed on the gel at 60V.
7 sheets of activated filter paper, PVDF membrane, gel and 7 sheets of filter paper were placed in order in the cassettes of the Trans-Blot® Turbo™ Transfer System, and the lid was closed, and after being inserted into the machine, the protocol started.
The transferred membrane was immersed in blocking buffer and incubated at constant temperature (RT, 1h). Next, it was incubated at 4 °C overnight in primary antibody solution. It was rinsed with TBST buffer for 3 minutes (repeated 3 times). Incubation was performed (RT, 1h) in a secondary antibody solution conjugated with HRP. It was rinsed with TBST buffer for 3 minutes (repeated 3 times).
After soaking the membrane in the ECL substrate for 3 to 5 minutes, the signal was determined by using the ChemiDoc™ MP Imaging System.
(In western blotting, separated proteins are transferred to a membrane and probed.)

The test system of the next series is A549 cell line. The experiment in a line: Western blot of DDX5 and anti-apoptotic proteins in A549. Type of series: cell-based. The settings on record: FaDu and A549; 0, 10, 100 nM.
Series [9] has as its system HCT-8 and FaDu cell lines. The series is described as follows: Western blot of anti-apoptotic proteins in HCT-8 and FaDu. Type of series: cell-based. The settings on record: FIG. 6. An excerpt: GAPDH is an enzyme involved in glycolysis, which is an essential metabolic process in cells.
The test system of a further series is in vitro cytotoxicity. The experiment in a line: In vitro cytotoxicity of FL118, exatecan versus SN-38. The settings on record: FIG. 5. Type of series: cell-based.
In the next series the target is DDX5 protein (Homo sapiens, UniProt P17844). The series is described as follows: DDX5 degradation by camptothecin drugs. Type of series: cell-based. The settings on record: FIGS. 7 to 10.
Sequence of DDX5 protein (P17844 whole entry): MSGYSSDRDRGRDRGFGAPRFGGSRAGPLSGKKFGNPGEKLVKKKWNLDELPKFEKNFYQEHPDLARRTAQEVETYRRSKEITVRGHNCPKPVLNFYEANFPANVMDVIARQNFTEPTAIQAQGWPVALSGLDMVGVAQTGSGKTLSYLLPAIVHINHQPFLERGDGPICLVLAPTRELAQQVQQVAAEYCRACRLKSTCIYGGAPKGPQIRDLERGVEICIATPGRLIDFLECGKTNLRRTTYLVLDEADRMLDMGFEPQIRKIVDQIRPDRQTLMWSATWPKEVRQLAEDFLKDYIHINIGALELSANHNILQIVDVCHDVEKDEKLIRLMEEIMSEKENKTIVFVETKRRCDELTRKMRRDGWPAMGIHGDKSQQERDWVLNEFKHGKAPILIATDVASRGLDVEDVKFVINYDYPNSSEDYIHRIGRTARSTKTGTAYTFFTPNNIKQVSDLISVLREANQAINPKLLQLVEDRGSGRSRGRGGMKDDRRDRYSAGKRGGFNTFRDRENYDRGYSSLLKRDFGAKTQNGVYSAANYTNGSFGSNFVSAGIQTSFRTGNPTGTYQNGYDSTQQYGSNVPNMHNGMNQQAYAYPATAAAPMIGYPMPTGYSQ
Series [10] deals with cancer cell line Xenograft models. The settings on record: cited from earlier work.
A further series relates to PDAC cells with DDX5 KO. The settings on record: cited from earlier work.
In series [11] the test system is EGFR. The settings on record: cited from earlier work. This is another data set of the same source.
Series [12] deals with patients. The settings on record: phase 1 studies; cited from earlier work.
A further series deals with liver. The settings on record: versus parent hRS7 IgG; U.S. Pat. No. 9,629,926 B; cited from earlier work.
A further series deals with DNA topoisomerase I (Homo sapiens, UniProt P11387). The settings on record: versus SN-38 and topotecan; cited from earlier work.
Sequence of DNA topoisomerase I (P11387 whole entry): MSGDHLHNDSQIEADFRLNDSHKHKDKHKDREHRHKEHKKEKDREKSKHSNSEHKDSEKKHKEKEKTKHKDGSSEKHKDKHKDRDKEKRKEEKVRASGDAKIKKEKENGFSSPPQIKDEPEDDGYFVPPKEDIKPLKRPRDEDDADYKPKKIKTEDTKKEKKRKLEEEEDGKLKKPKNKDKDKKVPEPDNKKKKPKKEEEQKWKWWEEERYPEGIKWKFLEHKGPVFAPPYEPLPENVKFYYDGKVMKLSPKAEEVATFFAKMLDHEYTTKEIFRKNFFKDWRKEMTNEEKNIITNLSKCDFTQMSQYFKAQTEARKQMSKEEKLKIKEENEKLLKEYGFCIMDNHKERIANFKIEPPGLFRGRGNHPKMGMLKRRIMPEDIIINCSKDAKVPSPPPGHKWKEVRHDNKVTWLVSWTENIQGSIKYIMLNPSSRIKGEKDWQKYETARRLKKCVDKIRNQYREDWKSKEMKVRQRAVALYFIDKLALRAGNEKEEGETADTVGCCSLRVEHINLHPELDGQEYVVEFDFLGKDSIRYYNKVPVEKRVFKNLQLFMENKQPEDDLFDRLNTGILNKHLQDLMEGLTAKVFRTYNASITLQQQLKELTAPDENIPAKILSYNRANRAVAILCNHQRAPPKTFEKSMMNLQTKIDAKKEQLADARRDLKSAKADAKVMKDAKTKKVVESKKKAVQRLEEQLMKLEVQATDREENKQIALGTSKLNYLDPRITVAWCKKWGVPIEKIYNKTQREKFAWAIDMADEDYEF
Another series has as its system various cancer cells. The settings on record: resistance due to expression of P-glycoprotein; cited from earlier work.
Another series has as its system several cell lines. The settings on record: cited from earlier work.

In the case of “panitumumab: antibody drug targeting EGFR”, the “binding affinity relative to nimotuzumab” value in the series on EGFR [1] was “more than 10 times”.

Regarding “Nimotuzumab: humanized IgG1 EGFR-targeting antibody”, the side effects severity entry in the series with patients [2] (humans) was “only mild to moderate in severity”. Besides, the “incidence of severe acneiform rash and gastrointestinal mucosal toxicity” value in the series with patients [2] (patients) was “much lower incidence”. Further, in [3], the “binding to normal skin and kidney cells” value was “much less binding than cetuximab”.

For the compound ABT-414: ADC targeting EGFR variant III, in the series with relapsed glioblastoma, the monotherapy efficacy entry is on record as “promising monotherapy efficacy”.

Turning to `CC[C@@]1(O)C(=O)OCc2c1cc1n(c2=O)Cc2c-1nc1ccccc1c2CCNC(C)C` [CKD-602], the “anticancer effects versus camptothecin and topotecan” value in [4] was “superior anticancer effects compared to camptothecin and topotecan”. In addition, the adverse drug reactions result in series [5] is listed as “no adverse drug reactions other than increased gastric secretion”. For the same compound, the “side effects in clinical studies” value in the series on patients [6] is “only reversible and controllable side effects such as neutropenia and leukopenia”.

Turning to `CC[C@@]1(O)C(=O)OCc2c1cc1n(c2=O)Cc2cc3cc4c(cc3nc2-1)OCO4` [FL118, 10, 11-methylenedioxy-camptothecin], in the series on rats and beagle dogs, the safety entry was “excellent safety”. The “xenograft efficacy, Top1 not expressed” value in series [7] (Epigenetic Silencing or Knock-out of Top1) is “strong efficacy”. Further, in series [7] (after inducing SN-38 resistance in tumor xenograft), the “anticancer efficacy after SN-38 resistance” value is “strong anticancer efficacy”. The tumor regression efficacy result in series [7] (same amount as SN-38, colon, head and neck, pancreatic cancer) is on record as “stronger tumor regression efficacy than SN-38”. Besides, the xenograft efficacy entry in series [7] (versus SN-38 in various cancer cell line Xenograft models) was “superior efficacy compared to SN-38”. Besides, the “sensitivity to ABCG2” value at ABCG2 is on record as “not affected by the ABCG2 Transporter”. Further, the “accumulation in cancer tissue” value in series [8] (immediately after administration) is reported as “accumulates quickly in cancer tissue”. In addition, the blood clearance entry in series [8] (systemic administration alone) was “rapidly metabolized and excreted from the blood”. The DDX5 degradation ranking entry in the series with FaDu cell line and in the series on A549 cell line was “superior to other substances” in each case. For the same compound, the “downregulating tumor proteins versus SN-38” value in [9] was “better efficacy in downregulating tumor proteins compared to the SN-38 drug”. Further, the “in vitro cytotoxicity versus SN-38” value in the series with in vitro cytotoxicity is reported as “better efficacy against in vitro cytotoxicity compared to SN-38”. Also, the “DDX5 degradation mechanism of action” value on DDX5 protein is “directly binds to the tumor protein DDX5”. In series [10] (high DDX5 expression), the “efficacy in eliminating human PDAC and CRC tumors, high DDX5 expression” value was “high efficacy”. In addition, the “efficacy in PDAC and CRC tumors, low DDX5 expression” value in series [10] (low DDX5 expression) was “less effective”. Also, the “sensitivity of DDX5 KO cells” value in the series on PDAC cells with DDX5 KO is reported as “resistant”.

“ABX-EGF: fully humanized IgG2 monoclonal antibody to EGFR”: the “affinity for EGFR versus cetuximab” value in the series with EGFR [11] is “higher affinity for EGFR than cetuximab”. The most common toxicity entry with patients [12] is “skin toxicity”.

Consider “hRS7-CL2A-SN-38: Trop-2 ADC of hRS7 with CL2A-SN-38”, for which the liver uptake result in the series with liver is listed as “two-fold higher liver uptake”.

Take `CC[C@@]1(O)C(=O)OCc2c1cc1n(c2=O)Cc2c-1nc1cc(F)c(C)c3c1c2[C@@H](N)CC3` [Exatecan]: the “sensitivity to ABCG2” value at ABCG2 is listed as “almost unaffected by ABCG2”. For the same compound, in series [9], the “downregulating tumor proteins versus SN-38” value is on record as “better efficacy in downregulating tumor proteins compared to the SN-38 drug”. Besides, in the series with in vitro cytotoxicity, the “in vitro cytotoxicity versus SN-38” value is on record as “better efficacy against in vitro cytotoxicity compared to SN-38”. For the same compound, the “DDX5 degradation mechanism of action” value at DDX5 protein was “exerts a mechanism of action (MoA) to degrade DDX5 protein”. Moreover, the “type I topoisomerase inhibitory activity” value at DNA topoisomerase I is “stronger type I topoisomerase inhibitory activity than SN-38”. Also, the “effect on cancer cells resistant to SN-38 and other drugs” value in the series on various cancer cells is “effective against cancer cells that are resistant to SN-38”.

As for `CCc1c2c(nc3ccc(O)cc13)-c1cc3c(c(=O)n1C2)COC(=O)[C@]3(O)CC` [SN-38], on ABCG2, the “sensitivity to ABCG2” value is on record as “show resistance in the way that the drug is released out of the cell due to overexpression of the ABCG2 Transporter”. In addition, the IC50 entry with several cell lines is listed as “nanomolar range”.
